Laboratory results published in publication PMC13070491, “Single-nucleus transcriptomics, pharmacokinetics, and pharmacodynamics of CDK4/6 and mTOR inhibition in a Phase 0/1 trial of recurrent high-grade glioma” (Neuro-Oncology, 2025).

Tested on: GB126, GB239 and GB86 patient-derived cell lines
Assay: In vitro single-cell RNA sequencing, analyses across the cell lines (pseudobulk differential gene expression, GSEA, non-cycling cells)
Type: cell-based, human
Conditions: pseudobulk, ribociclib versus control (DMSO)
Experimental: Patient-derived glioma stem cell lines (GSCs; GB126, GB86, and GB239) were established from resected GBM tumor tissue. Cell lines were genetically profiled for mutations and copy number aberrations using the IvySeq custom gene panel. […] GB239 was derived from a tumor sample included in this Phase 0 trial (tumor sample: 100-0039). All human GSCs were cultured as described previously.[12]
Following the fifth day of drug exposure, cells were harvested, cryopreserved to be processed at a later point, or immediately processed for single-cell RNA sequencing (10x Genomics, 3’ version 3). The single-cell RNA sequencing data were then processed via cellranger count and Seurat. Briefly, cells were filtered out based on the following criteria: minimum number of genes detected >500 and <10 000 with a maximum percentage of mitochondrial genes set to 10%. Statistical assessment was made between the malignant proportions of each cell state using a 2-sided paired t-test.
Descriptive statistics of the clinical data are included in Table 1. Comparisons between groups were conducted using a 2-sided or paired 2-sided t-test, where indicated. P < .05 was considered significant. Multiple hypothesis test corrections (ie, false discovery rate correction) were applied for snRNAseq pseudobulk differential expression analysis.

CN(C)C(=O)c1cc2cnc(Nc3ccc(N4CCNCC4)cn3)nc2n1C1CCCC1 [ribo]
log2FoldChange CYSLTR2 (gene CYSLTR2): 1.514 | log2FoldChange CYYR1-AS1 (gene CYYR1-AS1): 1.511 | log2FoldChange DDO (gene DDO): 1.495 | log2FoldChange (gene DEPDC1B): -1.796 | log2FoldChange (gene DERL3): -1.095 | log2FoldChange (gene DHFR): -1.766 | log2FoldChange (gene DIAPH3-AS2): -1.671 | log2FoldChange (gene DNA2): -1.693 | log2FoldChange DSCR8 (gene DSCR8): 1.633 | log2FoldChange (gene DTL): -1.106 | log2FoldChange (gene ECT2): -1.057 | log2FoldChange FAM71F1 (gene FAM71F1): 1.476 | log2FoldChange (gene FAM72D): -1.625 | log2FoldChange FAM189A2 (gene FAM189A2): 1.685 | log2FoldChange (gene FANCG): -1.109 | log2FoldChange (gene FBLN1): -1.678 | log2FoldChange (gene FEN1): -1.753 | log2FoldChange (gene FGFR3): -1.106 | log2FoldChange FSHR (gene FSHR): 1.906 | log2FoldChange GBP6 (gene GBP6): 1.725 | log2FoldChange GDF3 (gene GDF3): 1.697 | log2FoldChange (gene GINS2): -1.846 | log2FoldChange (gene GLI1): -1.086 | log2FoldChange (gene GMNN): -1.627 | log2FoldChange HABP2 (gene HABP2): 1.889 | log2FoldChange (gene HAUS8): -1.09 | log2FoldChange HEPH (gene HEPH): 1.499 | log2FoldChange HGFAC (gene HGFAC): 1.4467 | log2FoldChange (gene HIRIP3): -1.608 | log2FoldChange (gene HIST1H1C): -1.863 | log2FoldChange (gene HIST1H3H): -1.783 | log2FoldChange HKDC1 (gene HKDC1): 1.5426 | log2FoldChange (gene IL1A): -1.056 | log2FoldChange (gene IL2RB): -1.0626 | log2FoldChange (gene INCENP): -1.833 | log2FoldChange ITIH6 (gene ITIH6): 1.766 | log2FoldChange (gene KCNAB3): -1.628 | log2FoldChange KISS1 (gene KISS1): 2.005 | log2FoldChange (gene KNTC1): -1.6836 | log2FoldChange LINC00239 (gene LINC00239): 1.81 | log2FoldChange LINC00587 (gene LINC00587): 1.439 | log2FoldChange LINC00601 (gene LINC00601): 1.889 | log2FoldChange LINC00645 (gene LINC00645): 1.665 | log2FoldChange LINC00844 (gene LINC00844): 1.919 | log2FoldChange LINC00892 (gene LINC00892): 1.448 | log2FoldChange LINC00901 (gene LINC00901): 2.0689 | log2FoldChange LINC00903 (gene LINC00903): 1.858 | log2FoldChange LINC00943 (gene LINC00943): 1.485 | log2FoldChange LINC00992 (gene LINC00992): 1.834 | log2FoldChange (gene LINC01337): -1.849 | log2FoldChange LINC01496 (gene LINC01496): 1.714 | log2FoldChange LINC01630 (gene LINC01630): 1.508 | log2FoldChange LINC01822 (gene LINC01822): 1.567 | log2FoldChange LINC02073 (gene LINC02073): 1.471 | log2FoldChange (gene LINC02137): -1.093 | log2FoldChange LINC02243 (gene LINC02243): 1.564 | log2FoldChange LINC02320 (gene LINC02320): 1.543 | log2FoldChange LINC02349 (gene LINC02349): 1.483 | log2FoldChange LINC02450 (gene LINC02450): 1.635 | log2FoldChange LINC02552 (gene LINC02552): 1.805 | log2FoldChange LINC02625 (gene LINC02625): 1.633 | log2FoldChange (gene LINC02757): -1.715 | log2FoldChange LINC02831 (gene LINC02831): 1.506 | log2FoldChange LNX1-AS1 (gene LNX1-AS1): 1.468 | log2FoldChange (gene LPL): -1.817 | log2FoldChange (gene LRRC26): -1.7868 | log2FoldChange MARVELD3 (gene MARVELD3): 1.752 | log2FoldChange MCHR1 (gene MCHR1): 1.5856 | log2FoldChange (gene MCM8): -1.112 | log2FoldChange MGP (gene MGP): 1.798 | log2FoldChange (gene MMS22L): -1.0936 | log2FoldChange (gene MND1): -1.879 | log2FoldChange MYH7 (gene MYH7): 1.782 | log2FoldChange NAT2 (gene NAT2): 2.867 | log2FoldChange NCAN (gene NCAN): 1.62 | log2FoldChange (gene NCAPD2): -1.822 | log2FoldChange (gene NEMP2): -1.111 | log2FoldChange (gene NEUROD4): -1.88 | log2FoldChange NHLRC4 (gene NHLRC4): 1.795 | log2FoldChange NMRK2 (gene NMRK2): 1.566 | log2FoldChange (gene NOSTRIN): -1.881 | log2FoldChange (gene NT5M): -1.088 | log2FoldChange (gene NUP210): -1.755 | log2FoldChange (gene PALM3): -1.6379 | log2FoldChange (gene PASK): -1.1089 | log2FoldChange PCP4L1 (gene PCP4L1): 2.139 | log2FoldChange (gene PHF19): -1.68 | log2FoldChange PLA2G5 (gene PLA2G5): 2.135 | log2FoldChange PLAAT4 (gene PLAAT4): 1.529 | log2FoldChange (gene PMAIP1): -1.131 | log2FoldChange (gene POLQ): -1.824 | log2FoldChange PPP1R1C (gene PPP1R1C): 1.557 | log2FoldChange PROK2 (gene PROK2): 1.695 | log2FoldChange (gene PRR11): -1.758 | log2FoldChange (gene PSMC3IP): -1.597 | log2FoldChange PTGDS (gene PTGDS): 2.458 | log2FoldChange RAB7B (gene RAB7B): 1.47 | log2FoldChange (gene RACGAP1): -1.841 | log2FoldChange (gene RAD51): -1.643 | log2FoldChange (gene RADIL): -1.781 | log2FoldChange (gene RBBP8): -1.095 | log2FoldChange (gene RDM1): -1.73 | log2FoldChange (gene REXO5): -1.094 | log2FoldChange (gene RHBDL3): -1.639 | log2FoldChange RNASE6 (gene RNASE6): 1.784 | log2FoldChange (gene RPA3): -1.063 | log2FoldChange RSPH1 (gene RSPH1): 1.529 | log2FoldChange (gene RTKN2): -1.715
